Experimental data from publication PMC11249646, “Small-Molecule Disruptors of the Interaction between Calcium- and Integrin-Binding Protein 1 and Integrin αIIbβ3 as Novel Antiplatelet Agents” (ACS Pharmacology & Translational Science, 2024).
Like-named read-outs stand apart in the source and are kept apart here.

Columns and labels:
[1] = target: T1, CIB1 and αIIb interaction (CIB1-GST : F-αIIb peptide) (Homo sapiens, UniProt Q99828); experiment: FP assay, 1536-well qHTS format (primary and confirmatory screen); format: binding; conditions: for Curve Class (confirmatory screen) / CONFIRMATORY SCREEN Curve Class: qHTS curve class
T1 construct: made in house; host or cells: BL-21 plus RIL cells (E. coli)
T1 sequence (Q99828 1-191): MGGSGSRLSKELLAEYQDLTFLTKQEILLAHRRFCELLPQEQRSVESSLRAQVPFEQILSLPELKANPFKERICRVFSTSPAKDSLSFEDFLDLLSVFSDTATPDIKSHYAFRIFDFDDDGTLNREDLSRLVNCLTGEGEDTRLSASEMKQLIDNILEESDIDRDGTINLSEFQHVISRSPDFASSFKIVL

[2] = target: T2, GST-CIB1 : F-scrambled peptide (Homo sapiens, UniProt Q99828); experiment: FP scrambled-peptide counter screen, 1536-well format; format: binding; conditions: for Curve Class (counterscreen) / COUNTERSCREEN Curve Class: qHTS curve class; for IC50: read-out: IC50 [μM] (counterscreen)
T2 construct: made in house; host or cells: BL-21 plus RIL cells (E. coli)
T2 sequence (Q99828 1-191): T1 sequence (Q99828 1-191)

[3] = confirmatory screen, negative sign = inhibitory curve
[4] = confirmatory screen, read-out: IC50 [μM] (confirmatory screen)
[5] = qHTS primary screen hits, Table S2, negative = inhibition
[6] = qHTS primary screen hits, Table S2, negative sign = inhibitory curve, several classes where COUNT > 1
[7] = qHTS primary screen hits, Table S2, read-out: IC50
[8] = counterscreen, negative sign = inhibitory curve
[9] = Table S3, confirmatory screen, a negative sign marks inhibitory curves
[10] = Table S3, confirmatory screen, negative = inhibition
[11] = Table S3, counterscreen, a negative sign marks inhibitory curves
[12] = Table S3, counterscreen, negative = inhibition
[13] = qHTS FP screen hits, Table S2, negative = inhibition
[14] = qHTS FP screen hits, Table S2, one class per curve where COUNT > 1, negative sign = inhibitory curve
[15] = qHTS FP screen hits, Table S2, read-out: IC50

SMILES | Efficacy (%) [1, 5] | Curve Class [1, 6] | IC50 [1, 7] | Curve Class (confirmatory screen) [1, 9] | Efficacy (%) (confirmatory screen) [1, 10] | Curve Class (counterscreen) [2, 11] | Efficacy (%) (counterscreen) [2, 12] | Efficacy (%) [1, 13] | Curve Class [1, 14] | IC50 [1, 15] | other results
CC1(C)OB(c2ccc(O)c3ncc(N4CCNCC4)cc23)OC1(C)C.O=C(O)C(F)(F)F [NCGC00241053-01] | -78% | -2.2 | 50.1 µM | – | – | – | – | – | – | – | Efficacy (%) (confirmatory screen) ([1]; confirmatory screen): -132%; Confirm? (confirmatory screen) ([1]; confirmatory screen, YES/NO): YES; Curve Class (confirmatory screen) [1, 3]: -2.1; IC50 [1, 4]: 31.6 µM; Efficacy (%) (counterscreen) ([2]; counterscreen): -102%; Curve Class (counterscreen) [2, 8]: -1.1; IC50 ([2]; counterscreen): 20 µM
NC(=O)c1cccc(-c2cnc3c(O)ccc(C(=O)O)c3c2)c1.O=C(O)C(F)(F)F [NCGC00241055-01] | -35% | – | 31.6 µM | 4 | -31% | -2.4 | -42% | – | – | – | Curve Class ([1]; qHTS primary screen hits, Table S2, negative sign = inhibitory curve): -2.4; Confirm? (counterscreen) ([2]; Table S3, counterscreen, YES/NO call): YES; IC50 ([2]; Table S3, counterscreen): 35.5 µM
COc1cc(Nc2c(C#N)cnc3cc(OCCCN4CCN(C)CC4)c(OC)cc23)c(Cl)cc1Cl [NCGC00241107-05] | – | – | – | – | – | – | – | -33% | -2.2 | 50.1 µM | Efficacy (%) (confirmatory screen) ([1]; confirmatory screen): -73%; Confirm? (confirmatory screen) ([1]; confirmatory screen, YES/NO): YES; Curve Class (confirmatory screen) [1, 3]: -2.2; IC50 [1, 4]: 44.7 µM; Efficacy (%) (counterscreen) ([2]; counterscreen): -37%; Curve Class (counterscreen) [2, 8]: -1.4; IC50 ([2]; counterscreen): 20 µM
CCOc1ccc(CCNC(C)=O)cc1OCC.O=C(O)C(F)(F)F [NCGC00241413-01] | – | – | – | – | – | – | – | -45% | -2.2 | 39.8 µM | CONFIRMATORY SCREEN Efficacy (%) ([1]; confirmatory screen): -11%; CONFIRMATORY SCREEN Curve Class ([1]; confirmatory screen): 4; COUNTERSCREEN Efficacy (%) ([2]; counterscreen): 0%; COUNTERSCREEN Curve Class ([2]; counterscreen): 4
CCOc1ccc(CCNC(=O)c2ccc(N3N=C(C)CC3=O)cc2)cc1OCC.O=C(O)C(F)(F)F [NCGC00241439-01] | -42% | -1.2 | 22.4 µM | 4 | -41% | 4 | -33% | – | – | – | –
CN(C(=O)c1cccs1)c1cccnc1.O=C(O)C(F)(F)F [NCGC00241518-01] | – | – | – | -1.1 | -90% | -2.1 | -118% | -77% | -2.2 | 50.1 µM | Confirm? (confirmatory screen) ([1]; Table S3, confirmatory screen, YES/NO call): YES; IC50 ([1]; Table S3, confirmatory screen, read-out: IC50 [μM] (confirmatory screen)): 31.6 µM; IC50 ([2]; Table S3, counterscreen): 44.7 µM
CCN1C(=O)c2ccccc2[S+]([O-])c2ccc(C(=O)Nc3ncc(C)s3)cc21 (stereo not drawn) [NCGC00241655-01] | -23% | -2.4 | 39.8 µM | – | – | – | – | – | – | – | CONFIRMATORY SCREEN Efficacy (%) ([1]; confirmatory screen): -10%; CONFIRMATORY SCREEN Curve Class ([1]; confirmatory screen): 4; COUNTERSCREEN Efficacy (%) ([2]; counterscreen): -33%; COUNTERSCREEN Curve Class ([2]; counterscreen): 4
